{"source": "patent US20230226092A1", "about": "“CANCER […] ON G[…]” (NuCana plc, priority 2015, published 2023)", "test_system": "primary acute myeloid leukaemia (AML) blasts", "experiment": "In vitro cytotoxicity assay (annexin V apoptosis) in primary acute myeloid leukemia cells", "type": "cell-based, human", "conditions": "primary AML blasts, CD34+ cells, 48h, annexin V", "experimental": "NUC-1031 was assayed for its cytotoxic effects on primary cultures of acute myeloid leukaemia (AML) blasts. LD50 values (the concentration required to kill 50% of the tumour cells in culture) were calculated in respect of NUC-1031 and gemcitabine.\nBone marrow samples were collected in ethylenediaminetetraacetic acid (EDTA) from newly diagnosed, previously untreated, acute myeloid leukemia (AML) patients. AML blasts were enriched by density gradient centrifugation using Histopaque (Sigma, Poole, UK) and were subsequently maintained in Roswell Park Memorial Institute medium (RPMI) supplemented with 10% foetal bovine serum (FBS). Cells were treated with Gemcitabine or NUC-1031 at concentrations between 0.25 µM and 10 µM, and incubated for 48h. All cultures were maintained at 37° C. in a 5% CO2 humidified atmosphere.\nCells were harvested and labelled with CD34-fluorescein isothiocyanate (FITC) (BD Biosciences, Buckingham, UK) and then resuspended in 200 µl of binding buffer containing 4µl of annexin V labelled with allophycocyanin (APC) (eBioscience Ltd, Hatfield, UK). Apoptosis was quantified in the CD34^+ AML cells using an Accuri C6 flow cytometer (Becton Dickinson, CA, USA). At least 10,000 events were acquired and data were subsequently analysed using FlowJo software (Tree Star Inc., Ashland, OR, USA). All LD50 values (concentration of drug required to kill 50% of cells) were derived from the dose-response curves."}
{"compound": "Nc1ccn([C@@H]2O[C@H](CO)[C@@H](O)C2(F)F)c(=O)n1", "note": "[gemcitabine, reference compound]", "values": [{"measurement": "mean LD50", "result": 3.1, "unit": "µM"}]}
